In ChEMBL document CHEMBL5500406, “Discovery of Novel Proteolysis-Targeting Chimera Molecules as Degraders of Programmed Cell Death-Ligand 1 for Breast Cancer Therapy” (J Med Chem, 2024):
The source made the active and inactive calls. The rule behind the calls is not given here.

Assays:
[1] = Toxicity in BALB/c mouse allografted with mouse 4T1 cells assessed as pathological change in lung at 30 to 60 mg/kg, ip qd for 15 days by H and E staining based analysis; format: organism-based; conditions: in vivo, 360 h, dose 30-60 mg/kg, time 15 day
[2] = Toxicity in BALB/c mouse allografted with mouse 4T1 cells assessed as pathological change in liver at 60 mg/kg, ip qd for 15 days in presence of Paclitaxel by H and E staining based analysis; format: organism-based; conditions: in vivo, 360 h, time 15 day
[3] = tested on: 4T1; assay: Antitumor activity against mouse 4T1 cells allografted in BALB/c mouse at 30 mg/kg, ip qd for 15 days relative to control; format: functional; conditions: 4T1, 360 h, time 15 day, read-out: TGI
[4] = tested on: 4T1; assay: Antitumor activity against mouse 4T1 cells allografted in BALB/c mouse assessed as reduction in tumor volume at 60 mg/kg, ip qd for 15 days in presence of Paclitaxel; format: functional, organism-based; conditions: time 15.0 day
[5] = Clearance in Sprague-Dawley rat at 3 mg/kg, iv measured for 24 hrs by LC-MS/MS analysis; format: ADME, organism-based; conditions: in vivo
[6] = tested on: 4T1; assay: Antitumor activity against mouse 4T1 cells allografted in BALB/c mouse assessed as reduction in tumor volume at 30 to 60 mg/kg, ip qd for 15 days; format: functional, organism-based; conditions: dose 30-60 mg/kg, time 15.0 day
[7] = target: T1, Protein cereblon/Programmed cell death 1 ligand 1 (Mus musculus) (UniProt Q9EP73+Q8C7D2); assay: PROTAC activity at CRBN/PD-L1 in mouse 4T1 cells assessed as reduction in green fluorescence in cytoplasm at 0.312 uM incubated for 24 hrs by immunofluorescence analysis; format: subcellular
T1 sequence (Q9EP73 19-290 limits assumed, one chain of several): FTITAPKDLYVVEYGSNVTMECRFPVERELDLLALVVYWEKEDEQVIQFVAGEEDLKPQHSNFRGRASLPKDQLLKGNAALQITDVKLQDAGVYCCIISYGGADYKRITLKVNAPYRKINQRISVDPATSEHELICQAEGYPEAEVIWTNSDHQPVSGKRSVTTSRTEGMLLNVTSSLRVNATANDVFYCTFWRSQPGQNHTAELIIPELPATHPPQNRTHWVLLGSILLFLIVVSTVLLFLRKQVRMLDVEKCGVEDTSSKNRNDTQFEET

[8] = Toxicity in BALB/c mouse allografted with mouse 4T1 cells assessed as abnormality in routine blood analysis at 30 to 60 mg/kg, ip qd for 15 days; format: organism-based; conditions: in vivo, 360 h, dose 30-60 mg/kg, time 15 day
[9] = Toxicity in BALB/c mouse allografted with mouse 4T1 cells assessed as pathological change in heart at 30 to 60 mg/kg, ip qd for 15 days by H and E staining based analysis; format: organism-based; conditions: in vivo, 360 h, dose 30-60 mg/kg, time 15 day
[10] = target: Protein cereblon/Programmed cell death 1 ligand 1 (Mus musculus, UniProt Q9EP73+Q8C7D2); assay: PROTAC activity at CRBN/PD-L1 in mouse 4T1 cells assessed as protein degradation incubated for 24 hrs by Western blot analysis; format: cell-based
Chain of Protein cereblon/Programmed cell death 1 ligand 1 (Q9EP73 whole entry, one chain of several): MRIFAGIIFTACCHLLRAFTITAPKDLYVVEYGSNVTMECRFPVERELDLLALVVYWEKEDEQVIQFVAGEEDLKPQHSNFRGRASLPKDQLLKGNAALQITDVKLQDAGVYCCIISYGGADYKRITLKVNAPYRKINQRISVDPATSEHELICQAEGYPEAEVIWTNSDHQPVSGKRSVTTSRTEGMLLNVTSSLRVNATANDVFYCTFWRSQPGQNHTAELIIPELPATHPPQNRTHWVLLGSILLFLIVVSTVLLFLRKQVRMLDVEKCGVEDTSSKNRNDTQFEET

[11] = Toxicity in BALB/c mouse allografted with mouse 4T1 cells assessed as pathological change in spleen at 60 mg/kg, ip qd for 15 days in presence of Paclitaxel by H and E staining based analysis; format: organism-based; conditions: in vivo, 360 h, time 15 day
[12] = target: T1, Protein cereblon/Programmed cell death 1 ligand 1 (Mus musculus); assay: PROTAC activity at CRBN/PD-L1 in mouse 4T1 cells assessed as protein degradation at 0.312 uM incubated for 24 hrs by Western blot analysis relative to control; format: cell-based
[13] = tested on: 4T1; assay: In vivo PROTAC activity at CRBN/PD-L1 in mouse 4T1 cells allografted in BALB/c mouse assessed as protein degradation at 30 to 60 mg/kg, ip qd for 15 days by IHC analysis; format: functional, organism-based; conditions: dose 30-60 mg/kg, time 15.0 day
[14] = Half life in Sprague-Dawley rat at 30 mg/kg, ip measured for 24 hrs by LC-MS/MS analysis; format: ADME, organism-based; conditions: in vivo
[15] = target: T1, Protein cereblon/Programmed cell death 1 ligand 1 (Mus musculus); assay: PROTAC activity at CRBN/PD-L1 in mouse 4T1 cells assessed as protein degradation at 0.312 uM incubated for 24 hrs in presence of MG132 by Western blot analysis; format: cell-based
[16] = target: T1, Protein cereblon/Programmed cell death 1 ligand 1 (Mus musculus); assay: PROTAC activity at CRBN/PD-L1 in mouse 4T1 cells assessed as protein degradation at 0.078 to 10 uM measured for 48 hrs by Western blot analysis; format: cell-based; conditions: dose 0.078-10 µM
[17] = tested on: 4T1; assay: Antitumor activity against mouse 4T1 cells allografted in BALB/c mouse at 60 mg/kg, ip qd for 15 days relative to control; format: functional; conditions: 4T1, 360 h, time 15 day, read-out: TGI
[18] = tested on: 4T1; assay: Antitumor activity against mouse 4T1 cells assessed as decrease in cell viability at 0.078 to 0.312 uM incubated for 24 hrs by LDH assay; format: functional, cell-based; conditions: dose 0.078-0.312 µM
[19] = tested on: 4T1; assay: Antitumor activity against mouse 4T1 cells allografted in BALB/c mouse assessed as increase in CD4+ T cells infiltration in tumor at 30 to 60 mg/kg, ip qd for 15 days by IHC analysis; format: functional, organism-based; conditions: dose 30-60 mg/kg, time 15.0 day
[20] = Toxicity in BALB/c mouse allografted with mouse 4T1 cells assessed as body weight loss at 30 to 60 mg/kg, ip qd for 15 days; format: organism-based; conditions: in vivo, 360 h, dose 30-60 mg/kg, time 15 day
[21] = Cmax in Sprague-Dawley rat at 30 mg/kg, ip measured for 24 hrs by LC-MS/MS analysis; format: ADME, organism-based; conditions: in vivo
[22] = target: T1, Protein cereblon/Programmed cell death 1 ligand 1 (Mus musculus); assay: PROTAC activity at CRBN/PD-L1 in mouse 4T1 cells assessed as protein degradation at 0.312 uM incubated for 24 hrs in presence of siCRBN by Western blot analysis; format: cell-based
[23] = tested on: 4T1; assay: Antitumor activity against mouse 4T1 cells allografted in BALB/c mouse assessed as increase in Prf1 mRNA level in tumor at 60 mg/kg, ip qd for 15 days by qRT-PCR analysis; format: functional, organism-based; conditions: time 15.0 day
[24] = target: T1, Protein cereblon/Programmed cell death 1 ligand 1 (Mus musculus); assay: PROTAC activity at CRBN/PD-L1 in mouse 4T1 cells assessed as protein degradation at 0.078 to 0.312 uM incubated for 24 hrs by flow cytometry; format: cell-based; conditions: dose 0.078-0.312 µM
[25] = tested on: 4T1; assay: Antitumor activity against mouse 4T1 cells allografted in BALB/c mouse assessed as reduction in tumor weight at 30 to 60 mg/kg, ip qd for 15 days; format: functional, organism-based; conditions: dose 30-60 mg/kg, time 15.0 day
[26] = target: T2, Protein cereblon (Mus musculus, UniProt Q8C7D2); assay: Binding affinity to mouse CRBN assessed as dissociation constant incubated for 15 mins by MST assay
T2 sequence (Q8C7D2 whole entry): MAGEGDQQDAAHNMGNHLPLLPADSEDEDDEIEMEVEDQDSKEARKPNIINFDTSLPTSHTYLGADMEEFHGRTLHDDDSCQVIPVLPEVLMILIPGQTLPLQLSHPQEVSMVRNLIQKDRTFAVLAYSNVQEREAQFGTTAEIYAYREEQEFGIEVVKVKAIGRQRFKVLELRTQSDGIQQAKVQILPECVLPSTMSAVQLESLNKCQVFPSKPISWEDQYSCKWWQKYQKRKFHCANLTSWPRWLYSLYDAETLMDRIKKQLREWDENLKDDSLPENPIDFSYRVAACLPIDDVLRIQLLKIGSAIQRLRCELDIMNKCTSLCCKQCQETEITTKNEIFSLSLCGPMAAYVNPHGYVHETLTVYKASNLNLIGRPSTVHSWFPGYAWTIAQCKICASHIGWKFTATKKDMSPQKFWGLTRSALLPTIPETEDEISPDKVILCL

[27] = target: Programmed cell death 1 ligand 1 (Mus musculus, UniProt Q9EP73); assay: Binding affinity to mouse PD-L1 assessed as dissociation constant incubated for 15 mins by MST assay
Chain of Programmed cell death 1 ligand 1 (Q9EP73 whole entry): as the sequence (Q9EP73 whole entry, one chain of several) above

**Q.** For COc1nc(OCc2cccc(-c3ccccc3)c2C)ccc1CNCCNC(=O)CCCCCCCCNC(=O)COc1ccc(C2CCC(=O)NC2=O)cc1 (configuration not stated), which Activity [1] is on record?
**A.** Non-Toxic

**Q.** And the Activity [2]?
**A.** Non-Toxic

**Q.** And the inhibition in vivo at 30 mg/kg [3]?
**A.** 75%

**Q.** What about the Activity [4] of the same compound?
**A.** Active

**Q.** What about the clearance [5] of the same compound?
**A.** 471 mL/min/kg

**Q.** What about the Activity [6] of the same compound?
**A.** Active

**Q.** What about the Activity [7] of the same compound?
**A.** Active

**Q.** And the Activity [8]?
**A.** Non-Toxic

**Q.** And the Activity [9]?
**A.** Non-Toxic

**Q.** And the DC50 [10]?
**A.** 0.609 µM

**Q.** And the Activity [11]?
**A.** Non-Toxic

**Q.** And the Emax [12]?
**A.** 85%

**Q.** What about the Activity [13] of the same compound?
**A.** Active

**Q.** And the half-life [14]?
**A.** 5.3 h

**Q.** And the Activity [15]?
**A.** inactive

**Q.** And the Activity [16]?
**A.** Active

**Q.** What about the inhibition in vivo at 60 mg/kg [17] of the same compound?
**A.** 83.2%

**Q.** What about the Activity [18] of the same compound?
**A.** Active

**Q.** And the Activity [19]?
**A.** Active

**Q.** And the Activity [20]?
**A.** Non-Toxic

**Q.** And the Cmax [21]?
**A.** 217 ng/mL

**Q.** And the Activity [22]?
**A.** inactive

**Q.** And the Activity [23]?
**A.** Active

**Q.** What about the Activity [24] of the same compound?
**A.** Active

**Q.** What about the Activity [25] of the same compound?
**A.** Active

**Q.** What about the Kd [26] of the same compound?
**A.** 132 µM

**Q.** And the Kd [27]?
**A.** 59.2 µM
